Measurements: paper PMC5218480 (PLoS ONE, 2017)

System: MV-4-11 cells
Test: Gene expression microarray analysis (Affymetrix PrimeView) and GSEA
Type: cell-based, human
Design: RFU PODN (11730768_x_at) / Fold change /veh PODN (11730768_x_at) / RFU LINC00158 (11744669_a_at) / Fold change /veh LINC00158 (11744669_a_at) / RFU DUSP10 (11751237_a_at) / Fold change /veh DUSP10 (11751237_a_at) / RFU ID3 (11757404_x_at) / Fold change /veh ID3 (11757404_x_at) / RFU PLEKHG5 (11737974_s_at) / Fold change /veh PLEKHG5 (11737974_s_at) / RFU LRRC4B (11730491_at) / Fold change /veh LRRC4B (11730491_at) / RFU GIMAP4 (11747438_a_at) / Fold change /veh GIMAP4 (11747438_a_at) / RFU KRT8 (11758183_x_at) / Fold change /veh KRT8 (11758183_x_at) / RFU CNN1 (11734310_a_at) / Fold change /veh CNN1 (11734310_a_at) / RFU VPS37D (11726825_at) / Fold change /veh VPS37D (11726825_at) / RFU C10orf10 (11716522_x_at) / Fold change /veh C10orf10 (11716522_x_at) / RFU KIR2DL2 /// KIR2DL4 /// KIR2DL5A /// KIR2DL5B /// KIR2DS1 /// KIR2DS2 /// KIR2DS3 /// KIR2DS4 /// KIR3DL3 /// KIR3DL3 /// KIR3DS1 (11738374_at) / Fold change /veh KIR2DL2 /// KIR2DL4 /// KIR2DL5A /// KIR2DL5B /// KIR2DS1 /// KIR2DS2 /// KIR2DS3 /// KIR2DS4 /// KIR3DL3 /// KIR3DL3 /// KIR3DS1 (11738374_at) / RFU C1QL1 (11718748_at) / Fold change /veh C1QL1 (11718748_at) / RFU TMPRSS4 (11747572_a_at) / Fold change /veh TMPRSS4 (11747572_a_at) / RFU HAMP (11756126_x_at) / Fold change /veh HAMP (11756126_x_at) / RFU RNFT2 (11725882_a_at) / Fold change /veh RNFT2 (11725882_a_at) / RFU NR4A2 (11747474_a_at) / Fold change /veh NR4A2 (11747474_a_at) / RFU ABCC12 (11746883_a_at) / Fold change /veh ABCC12 (11746883_a_at) / RFU TMEM136 (11760407_x_at) / Fold change /veh TMEM136 (11760407_x_at) / RFU CLDN22 /// WWC2 (11732394_at) / Fold change /veh CLDN22 /// WWC2 (11732394_at) / RFU HLA-DPB1 (11760878_x_at) / Fold change /veh HLA-DPB1 (11760878_x_at) / RFU SPINT1 (11716480_a_at) / Fold change /veh SPINT1 (11716480_a_at) / RFU GAP43 (11754022_s_at) / Fold change /veh GAP43 (11754022_s_at) / RFU A4GNT (11735810_at) / Fold change /veh A4GNT (11735810_at) / RFU PRB3 (11715151_x_at) / Fold change /veh PRB3 (11715151_x_at) / RFU TUBB4B (11761932_at) / Fold change /veh TUBB4B (11761932_at) / RFU CAPN14 (11732068_a_at) / Fold change /veh CAPN14 (11732068_a_at) / RFU TMCC2 (11721928_a_at) / Fold change /veh TMCC2 (11721928_a_at) / RFU IRGQ (11745062_a_at) / Fold change /veh IRGQ (11745062_a_at) / RFU FAM174B (11720279_a_at) / Fold change /veh FAM174B (11720279_a_at) / RFU TMPRSS4 (11748680_a_at) / Fold change /veh TMPRSS4 (11748680_a_at) / RFU FAM212B (11763350_a_at) / Fold change /veh FAM212B (11763350_a_at) / RFU PLEKHG5 (11743358_a_at) / Fold change /veh PLEKHG5 (11743358_a_at) / RFU ZSCAN30 (11745921_a_at) / Fold change /veh ZSCAN30 (11745921_a_at) / RFU CMKLR1 (11741424_a_at) / Fold change /veh CMKLR1 (11741424_a_at) / RFU LOC101060620 /// MAPK8IP1 (11723275_at) / Fold change /veh LOC101060620 /// MAPK8IP1 (11723275_at) / RFU SPTSSB (11747773_x_at) / Fold change /veh SPTSSB (11747773_x_at) / RFU PRSS12 (11739890_at) / Fold change /veh PRSS12 (11739890_at) / RFU BIN1 (11741810_x_at) / Fold change /veh BIN1 (11741810_x_at) / RFU WNT11 (11732464_a_at) / Fold change /veh WNT11 (11732464_a_at) / RFU C10orf10 (11716521_a_at) / Fold change /veh C10orf10 (11716521_a_at) / RFU C5orf56 (11738089_at) / Fold change /veh C5orf56 (11738089_at) / RFU CYB561 (11721691_x_at) / Fold change /veh CYB561 (11721691_x_at) / RFU ANKRD19P (11752326_a_at) / Fold change /veh ANKRD19P (11752326_a_at) / RFU OR2T12 /// OR2T33 /// OR2T8 (11738714_s_at) / Fold change /veh OR2T12 /// OR2T33 /// OR2T8 (11738714_s_at) / RFU VCAN (11748164_a_at) / Fold change /veh VCAN (11748164_a_at) / RFU JSRP1 (11732532_at) / Fold change /veh JSRP1 (11732532_at) / RFU KRTAP10-11 (11738290_x_at) / Fold change /veh KRTAP10-11 (11738290_x_at) / RFU MYO3A (11730013_a_at) / Fold change /veh MYO3A (11730013_a_at) / RFU EBF3 (11725865_a_at) / Fold change /veh EBF3 (11725865_a_at) / RFU CAMK2N1 (11719241_x_at) / Fold change /veh CAMK2N1 (11719241_x_at) / RFU C5orf56 (11738088_a_at) / Fold change /veh C5orf56 (11738088_a_at) / RFU OLFML3 (11715873_a_at) / Fold change /veh OLFML3 (11715873_a_at) / RFU LOC100653217 /// NTM (11731650_a_at) / Fold change /veh LOC100653217 /// NTM (11731650_a_at) / RFU MAPK11 (11762145_a_at) / Fold change /veh MAPK11 (11762145_a_at) / RFU FIZ1 (11724087_x_at) / Fold change /veh FIZ1 (11724087_x_at) / RFU OASL (11726364_x_at) / Fold change /veh OASL (11726364_x_at) / RFU SOX15 (11748057_x_at) / Fold change /veh SOX15 (11748057_x_at) / RFU CD79A (11719716_a_at) / Fold change /veh CD79A (11719716_a_at) / RFU HIST1H1D (11736915_at) / Fold change /veh HIST1H1D (11736915_at) / RFU CASKIN2 (11723855_a_at) / Fold change /veh CASKIN2 (11723855_a_at) / RFU LOC730098 (11760151_x_at) / Fold change /veh LOC730098 (11760151_x_at) / RFU OR4N2 (11742367_at) / Fold change /veh OR4N2 (11742367_at) / RFU PRRT2 (11749266_a_at) / Fold change /veh PRRT2 (11749266_a_at) / RFU SNX32 (11753110_a_at) / Fold change /veh SNX32 (11753110_a_at) / RFU CDHR5 (11726645_a_at) / Fold change /veh CDHR5 (11726645_a_at) / RFU RCAN1 (11760418_a_at) / Fold change /veh RCAN1 (11760418_a_at) / RFU FAM167A (11723789_a_at) / Fold change /veh FAM167A (11723789_a_at) / RFU FAM26E (11764081_at) / Fold change /veh FAM26E (11764081_at) / RFU ISYNA1 (11749810_s_at) / Fold change /veh ISYNA1 (11749810_s_at) / RFU ACY1 (11761880_at) / Fold change /veh ACY1 (11761880_at) / RFU 11764098_at / Fold change /veh 11764098_at / RFU SAMD14 (11745864_x_at) / Fold change /veh SAMD14 (11745864_x_at) / RFU NPB (11741838_a_at) / Fold change /veh NPB (11741838_a_at) / RFU TMPRSS6 (11731388_a_at) / Fold change /veh TMPRSS6 (11731388_a_at) / RFU KRTAP10-2 (11738614_at) / Fold change /veh KRTAP10-2 (11738614_at) / RFU ARHGAP8 /// PRR5-ARHGAP8 (11727945_x_at) / Fold change /veh ARHGAP8 /// PRR5-ARHGAP8 (11727945_x_at) / RFU KRTAP5-7 /// NADSYN1 (11734609_at) / Fold change /veh KRTAP5-7 /// NADSYN1 (11734609_at) / RFU RASL12 (11751679_a_at) / Fold change /veh RASL12 (11751679_a_at) / RFU CDKN2B (11736163_a_at) / Fold change /veh CDKN2B (11736163_a_at) / RFU PRF1 (11729649_at) / Fold change /veh PRF1 (11729649_at) / RFU, ZNF638 /// ZNF638-IT1 / Fold change vs veh, ZNF638 /// ZNF638-IT1 / RFU, PANK3 / Fold change vs veh, PANK3 / RFU, SH3YL1 / Fold change vs veh, SH3YL1 / RFU, ZEB2 / Fold change vs veh, ZEB2 / RFU, NRIP1 / Fold change vs veh, NRIP1 / RFU, PTTG1IP / Fold change vs veh, PTTG1IP / RFU, CAPN2 / Fold change vs veh, CAPN2 / RFU, MED14 / Fold change vs veh, MED14 / RFU, SNORA58 / Fold change vs veh, SNORA58 / RFU, C1orf63 / Fold change vs veh, C1orf63 / RFU, LRRFIP1 / Fold change vs veh, LRRFIP1 / RFU, NDUFAF7 / Fold change vs veh, NDUFAF7 / RFU, SLC12A2 / Fold change vs veh, SLC12A2 / RFU, IBTK / Fold change vs veh, IBTK / RFU, ESF1 / Fold change vs veh, ESF1 / Fold change vs veh, TMEM50B / RFU, TAOK1 / Fold change vs veh, TAOK1 / RFU, ACBD3 / Fold change vs veh, ACBD3 / RFU, TMA16 / Fold change vs veh, TMA16 / RFU, RWDD3 / Fold change vs veh, RWDD3 / RFU, BCAT1 / Fold change vs veh, BCAT1 / RFU, EDEM3 / Fold change vs veh, EDEM3 / RFU, TMEM33 / Fold change vs veh, TMEM33 / RFU, WDR75 / Fold change vs veh, WDR75 / RFU, AHCTF1 / Fold change vs veh, AHCTF1 / RFU, TFRC / Fold change vs veh, TFRC / RFU, ZDHHC17 / Fold change vs veh, ZDHHC17 / RFU, NOM1 / Fold change vs veh, NOM1 / RFU, ARL8B / Fold change vs veh, ARL8B / RFU, ZBTB11 / Fold change vs veh, ZBTB11 / RFU, TAMM41 / Fold change vs veh, TAMM41 / RFU, KIAA1704 /// LOC100996395 / Fold change vs veh, KIAA1704 /// LOC100996395 / RFU, ING1 / Fold change vs veh, ING1 / RFU, TRMT61B / Fold change vs veh, TRMT61B / RFU, FUBP3 / Fold change vs veh, FUBP3 / RFU, TP53 / Fold change vs veh, TP53 / RFU, TNKS2 / Fold change vs veh, TNKS2 / RFU, ZFP14 / Fold change vs veh, ZFP14 / RFU, ACTR2 / Fold change vs veh, ACTR2 / RFU, PPP3R1 / Fold change vs veh, PPP3R1 / RFU, PIK3R1 / Fold change vs veh, PIK3R1 / RFU, HNRNPA1 / Fold change vs veh, HNRNPA1 / RFU, RNF170 / Fold change vs veh, RNF170 / RFU, ZNF28 / Fold change vs veh, ZNF28 / RFU, RNGTT / Fold change vs veh, RNGTT / RFU, OGT / Fold change vs veh, OGT / RFU, BRD1 / Fold change vs veh, BRD1 / RFU, MARS / Fold change vs veh, MARS / RFU, ZNF655 / Fold change vs veh, ZNF655 / RFU, FAHD1 / Fold change vs veh, FAHD1 / RFU, BDP1 / Fold change vs veh, BDP1 / RFU, LRRCC1 / Fold change vs veh, LRRCC1 / RFU, ARID1A / Fold change vs veh, ARID1A / RFU, ZNF146 / Fold change vs veh, ZNF146 / RFU, ZNF330 / Fold change vs veh, ZNF330 / RFU, GPN3 / Fold change vs veh, GPN3 / RFU, C9orf123 / Fold change vs veh, C9orf123 / RFU, N4BP2L2 / Fold change vs veh, N4BP2L2 / RFU, ARFIP1 / Fold change vs veh, ARFIP1 / RFU, FAM179B / Fold change vs veh, FAM179B / RFU, BCL10 / Fold change vs veh, BCL10 / RFU, UHRF1BP1L / Fold change vs veh, UHRF1BP1L / RFU, BET1 / Fold change vs veh, BET1 / RFU, CNOT2 / Fold change vs veh, CNOT2 / RFU, ZNF268 / Fold change vs veh, ZNF268 / Fold change vs veh, ZNF507 / RFU, DGCR2 / Fold change vs veh, DGCR2 / RFU, WDSUB1 / Fold change vs veh, WDSUB1 / Fold change vs veh, HSP90B1 /// MIR3652 / RFU, ADSS / Fold change vs veh, ADSS / RFU, GK / Fold change vs veh, GK / RFU, ZNF148 / Fold change vs veh, ZNF148 / RFU, TAF9 / Fold change vs veh, TAF9 / RFU, SLC1A5 / Fold change vs veh, SLC1A5 / RFU, SLMO2 / Fold change vs veh, SLMO2 / RFU, ABCC4 / Fold change vs veh, ABCC4 / RFU, LOC101060439 /// RAP1B / Fold change vs veh, LOC101060439 /// RAP1B / RFU, RFX7 / Fold change vs veh, RFX7 / RFU, GTPBP10 / Fold change vs veh, GTPBP10 / RFU, CNEP1R1 / Fold change vs veh, CNEP1R1 / RFU, BIVM-ERCC5 /// ERCC5 / Fold change vs veh, BIVM-ERCC5 /// ERCC5 / RFU, ILF3 / Fold change vs veh, ILF3 / RFU 11762660_at / Fold change /veh 11762660_at / RFU VCAN (11757783_s_at) / Fold change /veh VCAN (11757783_s_at) / RFU DDX43 (11728927_at) / Fold change /veh DDX43 (11728927_at) / RFU KRT8 (11758188_x_at) / Fold change /veh KRT8 (11758188_x_at) / RFU NKD1 (11759106_at) / Fold change /veh NKD1 (11759106_at) / RFU SRD5A1 (11742802_a_at) / Fold change /veh SRD5A1 (11742802_a_at) / RFU TPSAB1 /// TPSB2 (11721975_s_at) / Fold change /veh TPSAB1 /// TPSB2 (11721975_s_at) / RFU GSTM3 (11746129_a_at) / Fold change /veh GSTM3 (11746129_a_at) / RFU IL23R (11737362_x_at) / Fold change /veh IL23R (11737362_x_at) / RFU TMEM51 (11727254_a_at) / Fold change /veh TMEM51 (11727254_a_at) / RFU PIWIL2 (11732686_x_at) / Fold change /veh PIWIL2 (11732686_x_at) / RFU ORM1 (11744905_x_at) / Fold change /veh ORM1 (11744905_x_at) / RFU CCDC152 (11743942_at) / Fold change /veh CCDC152 (11743942_at) / RFU ECM1 (11717891_a_at) / Fold change /veh ECM1 (11717891_a_at) / RFU IL23R (11748794_a_at) / Fold change /veh IL23R (11748794_a_at) / RFU TNFAIP8L3 (11732012_x_at) / Fold change /veh TNFAIP8L3 (11732012_x_at) / RFU MBOAT4 (11741988_at) / Fold change /veh MBOAT4 (11741988_at) / RFU 11764193_at / Fold change /veh 11764193_at / RFU TMEM53 (11763286_at) / Fold change /veh TMEM53 (11763286_at) / RFU MAGEB2 (11727129_at) / Fold change /veh MAGEB2 (11727129_at) / RFU TMEM200A (11744735_a_at) / Fold change /veh TMEM200A (11744735_a_at) / RFU CCDC152 (11751479_a_at) / Fold change /veh CCDC152 (11751479_a_at) / RFU FAM211A (11726209_a_at) / Fold change /veh FAM211A (11726209_a_at) / RFU RGS16 (11746705_a_at) / Fold change /veh RGS16 (11746705_a_at) / RFU VCAN (11755009_s_at) / Fold change /veh VCAN (11755009_s_at) / RFU RHOB (11743442_s_at) / Fold change /veh RHOB (11743442_s_at) / RFU RGS16 (11720943_a_at) / Fold change /veh RGS16 (11720943_a_at) / RFU RGS16 (11720944_at) / Fold change /veh RGS16 (11720944_at) / RFU, VPS4B / Fold change vs veh, VPS4B / RFU, CREB1 / Fold change vs veh, CREB1 / RFU, DNAJC13 / Fold change vs veh, DNAJC13 / RFU, GNAQ / Fold change vs veh, GNAQ / RFU, CDK5R1 / Fold change vs veh, CDK5R1 / RFU, ZRANB3 / Fold change vs veh, ZRANB3 / RFU, CUL4A / Fold change vs veh, CUL4A / RFU, CCNY / Fold change vs veh, CCNY / RFU, UFL1 / Fold change vs veh, UFL1 / RFU, COG3 / Fold change vs veh, COG3 / RFU, DIAPH2 / Fold change vs veh, DIAPH2 / RFU, SKA2 / Fold change vs veh, SKA2 / RFU, AFF3 / Fold change vs veh, AFF3 / RFU, LMF1 / Fold change vs veh, LMF1 / RFU, IPO11 / Fold change vs veh, IPO11 / RFU, DFFB / Fold change vs veh, DFFB / RFU, FOXP1 / Fold change vs veh, FOXP1 / RFU, CARD8 / Fold change vs veh, CARD8 / RFU, STRN3 / Fold change vs veh, STRN3 / RFU, ADK / Fold change vs veh, ADK / RFU, RASSF2 / Fold change vs veh, RASSF2 / RFU, WIPF1 / Fold change vs veh, WIPF1 / RFU, LARP1B / Fold change vs veh, LARP1B / RFU, RASA1 / Fold change vs veh, RASA1 / RFU, RB1 / Fold change vs veh, RB1 / RFU, PPFIA1 / Fold change vs veh, PPFIA1 / RFU, MAT2A / Fold change vs veh, MAT2A / RFU, CCT5 / Fold change vs veh, CCT5 / RFU, WDR92 / Fold change vs veh, WDR92 / RFU, CUX1 / Fold change vs veh, CUX1 / RFU, TTC7A / Fold change vs veh, TTC7A / RFU, TMEM135 / Fold change vs veh, TMEM135 / RFU, DEPTOR / Fold change vs veh, DEPTOR / RFU, CPM / Fold change vs veh, CPM / RFU, DNAJB6 / Fold change vs veh, DNAJB6 / RFU, CACNA2D3 / Fold change vs veh, CACNA2D3 / RFU, DTX4 / Fold change vs veh, DTX4 / RFU, TFCP2 / Fold change vs veh, TFCP2 / RFU, GMCL1 /// GMCL1P1 / Fold change vs veh, GMCL1 /// GMCL1P1 / RFU, AEBP2 / Fold change vs veh, AEBP2 / RFU, SNHG1 /// SNORD22 /// SNORD25 /// SNORD26 /// SNORD27 /// SNORD28 /// SNORD29 /// SNORD31 / Fold change vs veh, SNHG1 /// SNORD22 /// SNORD25 /// SNORD26 /// SNORD27 /// SNORD28 /// SNORD29 /// SNORD31 / Fold change (Aza/veh), C12orf56 (ProbeSet 11735607_a_at) / Fold change (ACY-1035/veh), C12orf56 (ProbeSet 11735607_a_at) / Fold change (Aza/veh), FGFR1OP (ProbeSet 11751329_s_at) / Fold change (ACY-1035/veh), FGFR1OP (ProbeSet 11751329_s_at) / Fold change (Aza/veh), VPS36 (ProbeSet 11739960_a_at) / Fold change (ACY-1035/veh), VPS36 (ProbeSet 11739960_a_at) / RFU SYPL1 (11715823_x_at) / Fold change /veh SYPL1 (11715823_x_at) / RFU IGFBP7 (11715501_s_at) / Fold change /veh IGFBP7 (11715501_s_at) / RFU REEP3 (11722064_at) / Fold change /veh REEP3 (11722064_at) / RFU IGLL1 (11728026_x_at) / Fold change /veh IGLL1 (11728026_x_at): dose or concentration left out as unconfirmed
Conditions: ProbeSet 11738335_x_at; LIST B

Structure (SMILES): Nc1ncn([C@@H]2O[C@H](CO)[C@@H](O)[C@H]2O)c(=O)n1 [azacitidine]
- Fold change vs veh, TP53: 0.89
